Laboratory results taken from patent US11897876B2, “Isoxazolidines as RIPK1 inhibitors and use thereof” (GENZYME CORPORATION, priority 2022, dated 2024).
Like-named read-outs stand apart in the source and are kept apart here.

System: U937 cells
Experiment: Cellular assay in U937 cells, TNFα/zVAD.fmk-induced cell death (necroptosis), MTS readout
Format: cell-based
Conditions: Homo sapiens, U-937
From the text: Cellular Assay in U937 Cells to Measure the Activity of RIPK1-Inhibitors on Cell Death (Necroptosis).
Upon TNF-Receptor I ligation, Ser/Thr kinase RIPK1 is recruited to a transient receptor complex I. Upon modification of RIPK1 which promotes activation of RIPK1, complex […] can form, that involves recruitment of RIPK3 and MLKL (mixed lineage-kinase domain-like protein) which then translocates from the cytosol to the plasma membrane to execute cell death (Cai, Z. et al, Nat. Cell Biol. (2014)16:55-65).
Cell death was quantified in 96 well plates by determination of the amount of live cell using a CellTiter 96 AQueous reagent (Promega), a calorimetric method to measure the amount of live cells by reducing tetrazolium compound [3-(4,5-dimethylthiazol-2-yl)-5-(3-carboxymethoxyphenyl)-2-(4-sulfophenyl)-2H-tetrazolium, inner salt; MTS] into formazan. Absorbance of formazan was read at 490 nm. The inhibitory activity of the test compound was quantified in a concentration response curve (CRC) experiment. Compounds were obtained as 10 mM stock solutions and were diluted 1 to 10 volumes with DMSO to yield a 1 mM solution. From this solution 2 μl were diluted with 998 μl growth medium. 100 μl of 2 μM compound solution was further diluted sequentially with a dilution factor of 2.5 by adding 150 μl growth medium. A total of 10 concentrations were tested ranging from 10 μM to 0.26 nM or from 1 μM to 0.07 nM.
U937 cells were cultured in RPM11640 Glutamax and 10% heat inactivated FBS. 50 μl cell suspension containing 1×10^6 cells/ml supplemented with 50 μM zVAD.fmk (Benzyloxycarbonyl-Val-Ala-Asp (OMe) fluoromethylketone) and 100 ng/ml recombinant human TNFα were dispensed in each well of a 96-well plate. 50 μl of compound dilutions (see above) were added and the cell suspension incubated overnight (18 to 24 hrs) at 37° C., 5% CO2 in a humidified atmosphere (95% rH). High (no compound) and low control (no TNFα, zVAD.fmk) were tested with 7 replicates; all compound concentrations were tested in duplicates on each experimental plate.
CellTiter 96 Aqueous reagent was mixed (100 μl PMS (phenazine methosulfate) solution/2 ml MTS (3-(4,5-[…])-5-(3-carboxymethoxyphenyl)-2-(4-sulfophenyl)-2H-tetrazolium, inner salt) solution) and 20 μl were added per well. After 4 hrs incubation at 37° C. (5% CO2 95% rH) optical density was measured at 490 nm on a microplate reader (Tecan Infinite M1000).
The % inhibition is expressed as percentage of the maximal inhibition value obtained in the absence of TNFα/zVAD.fmc.

[1] = U937 cells, 100 ng/ml TNFα + 50 μM zVAD.fmk, overnight (18 to 24 hrs), read-out: U937 IC50
[2] = own data, read-out: IC50 (U937)

Structure (SMILES) | IC50 [1] [nM] | IC50 [2] [nM] | IC50 (own data, read-out: pIC50 (U937) (converted)) [nM]
O=C(C1CCN(c2nccc(-c3ccccc3)n2)CC1)N1N=CCC1c1ccccc1 (centres unmarked) [Comparator Example A, (3-Phenyl-3,4-dihydropyrazol-2-yl)-[1-(4-phenylpyrimidin-2-yl)-4-piperidyl]methanone, reference compound] | 8 | 8 | 
O=C(C1CCN(c2nccc(-c3ccccc3)n2)CC1)N1OCC[C@H]1c1ccccc1 [Comparator Example B, [(3S)-3-Phenylisoxazolidin-2-yl]-[1-(4-phenylpyrimidin-2-yl)-4-piperidyl]methanone, reference compound] | 9.4 | 9 | 
Cc1nnc(-c2cc(N3CCC(C(=O)N4N=CC[C@H]4c4ccccc4)CC3)ncn2)o1 [Comparator Example C, [1-[6-(5-Methyl-1,3,4-oxadiazol-2-yl)pyrimidin-4-yl]-4-piperidyl]-[(3S)-3-phenyl-3,4-dihydropyrazol-2-yl]methanone, reference compound] | 59 |  | 59
Cc1nnc(-c2cc(N3CCC(C(=O)N4OCC[C@H]4c4ccccc4)CC3)ncn2)o1 [Comparator Example D, [1-[6-(5-Methyl-1,3,4-oxadiazol-2-yl)pyrimidin-4-yl]-4-piperidyl]-[(3S)-3-phenylisoxazolidin-2-yl]methanone, reference compound] | 92 | 92 | 
Cc1nnc(-c2cc(N3CCC(C(=O)N4OCC[C@H]4c4cc(F)cc(C#N)c4)CC3)ncn2)o1 [Comparator Example E, 3-Fluoro-5-[(3S)-2-[1-[6-(5-methyl-1,3,4-oxadiazol-2-yl)pyrimidin-4-yl]piperidine-4-carbonyl]isoxazolidin-3-yl]benzonitrile, reference compound] | 197 | 197 | 
Cc1nccn1-c1cc(N2CCC(C(=O)N3OCC[C@H]3c3cc(F)cc(C#N)c3)CC2)ncn1 [Example 1, 3-Fluoro-5-[(3S)-2-[1-[6-(2-methylimidazol-1-yl)pyrimidin-4-yl]piperidine-4-carbonyl]isoxazolidin-3-yl]benzonitrile] | 5.9 |  | 
Cc1c(F)cc([C@@H]2CCON2C(=O)C2CCN(c3cc(-n4ccnc4C)ncn3)CC2)cc1C#N [Example 2, 3-Fluoro-2-methyl-5-[(3S)-2-[1-[6-(2-methylimidazol-1-yl)pyrimidin-4-yl]piperidine-4-carbonyl]isoxazolidin-3-yl]benzonitrile] | 3.8 |  | 
Cn1nccc1-c1cc(N2CCC(C(=O)N3OCC[C@H]3c3cc(F)cc(C#N)c3)CC2)ncn1 [Example 3, 3-Fluoro-5-[(3S)-2-[1-[6-(2-methylpyrazol-3-yl)pyrimidin-4-yl]piperidine-4-carbonyl]isoxazolidin-3-yl]benzonitrile] | 8.1 |  | 
Cn1nccc1-c1cc(N2CCC(C(=O)N3OCC[C@H]3c3cc(F)cc(F)c3)CC2)ncn1 [Example 4, [(3S)-3-(3,5-Difluorophenyl)isoxazolidin-2-yl]-[1-[6-(2-methylpyrazol-3-yl)pyrimidin-4-yl]-4-piperidyl]methanone] | 5 |  | 
Cn1nccc1-c1cc(N2CCC(C(=O)N3OCC[C@H]3c3cc(F)cc(Cl)c3)CC2)ncn1 [Example 5, [(3S)-3-(3-Chloro-5-fluoro-phenyl)isoxazolidin-2-yl]-[1-[6-(2-methylpyrazol-3-yl)pyrimidin-4-yl]-4-piperidyl]methanone] | 3 |  | 
Cc1n[nH]cc1-c1cc(N2CCC(C(=O)N3OCC[C@H]3c3cc(F)cc(C#N)c3)CC2)ncn1 [Example 6, 3-Fluoro-5-[(3S)-2-[1-[6-(3-methyl-1H-pyrazol-4-yl)pyrimidin-4-yl]piperidine-4-carbonyl]isoxazolidin-3-yl]benzonitrile] | 11.7 |  | 
Cc1nc(C2CC2)cn1-c1cc(N2CCC(C(=O)N3OCC[C@H]3c3cc(F)cc(C#N)c3)CC2)ncn1 [Example 7, 3-[(3S)-2-[1-[6-(4-Cyclopropyl-2-methyl-imidazol-1-yl)pyrimidin-4-yl]piperidine-4-carbonyl]isoxazolidin-3-yl]-5-fluoro-benzonitrile] | 3.6 |  | 
Cc1c(F)cc([C@@H]2CCON2C(=O)C2CCN(c3cc(-n4cc(C5CC5)nc4C)ncn3)CC2)cc1C#N [Example 8, 5-[(3S)-2-[1-[6-(4-Cyclopropyl-2-methyl-imidazol-1-yl)pyrimidin-4-yl]piperidine-4-carbonyl]isoxazolidin-3-yl]-3-fluoro-2-methyl-benzonitrile] | 1 | 1 | 
Cc1cc(-c2cc(N3CCC(C(=O)N4OCC[C@H]4c4cc(F)cc(C#N)c4)CC3)ncn2)n(C)n1 [Example 9, 3-[(3S)-2-[1-[6-(2,5-Dimethylpyrazol-3-yl)pyrimidin-4-yl]piperidine-4-carbonyl]isoxazolidin-3-yl]-5-fluoro-benzonitrile] | 15 |  | 
Cc1ncn(-c2cc(N3CCC(C(=O)N4OCC[C@H]4c4cc(F)cc(C#N)c4)CC3)ncn2)n1 [Example 10, 3-Fluoro-5-[(3S)-2-[1-[6-(3-methyl-1,2,4-triazol-1-yl)pyrimidin-4-yl]piperidine-4-carbonyl]isoxazolidin-3-yl]benzonitrile] | 2 |  | 
Cc1ncnn1-c1cc(N2CCC(C(=O)N3OCC[C@H]3c3cc(F)cc(C#N)c3)CC2)ncn1 [Example 11, 3-Fluoro-5-[(3S)-2-[1-[6-(5-methyl-1,2,4-triazol-1-yl)pyrimidin-4-yl]piperidine-4-carbonyl]isoxazolidin-3-yl]benzonitrile] | 9.3 |  | 
Cn1nncc1-c1cc(N2CCC(C(=O)N3OCC[C@H]3c3cc(F)cc(C#N)c3)CC2)ncn1 [Example 12, 3-Fluoro-5-[(3S)-2-[1-[6-(3-methyltriazol-4-yl)pyrimidin-4-yl]piperidine-4-carbonyl]isoxazolidin-3-yl]benzonitrile] | 7 |  | 
Cc1nccn1-c1ncnc(N2CCC(C(=O)N3OCC[C@H]3c3cc(F)cc(C#N)c3)CC2)c1F [Example 13, 3-Fluoro-5-[(3S)-2-[1-[5-fluoro-6-(2-methylimidazol-1-yl)pyrimidin-4-yl]piperidine-4-carbonyl]isoxazolidin-3-yl]benzonitrile] | 4.3 |  | 
Cc1cnn(-c2ncnc(N3CCC(C(=O)N4OCC[C@H]4c4cc(F)c(C)c(C#N)c4)CC3)c2F)c1 [Example 14, 3-Fluoro-5-[(3S)-2-[1-[5-fluoro-6-(4-methylpyrazol-1-yl)pyrimidin-4-yl]piperidine-4-carbonyl]isoxazolidin-3-yl]-2-methyl-benzonitrile] | 3.4 |  | 
Cn1nccc1-c1ncnc(N2CCC(C(=O)N3OCC[C@H]3c3cc(F)cc(F)c3)CC2)c1F [Example 15, [(3S)-3-(3,5-Difluorophenyl)isoxazolidin-2-yl]-[1-[5-fluoro-6-(2-methylpyrazol-3-yl)pyrimidin-4-yl]-4-piperidyl]methanone] | 0.4 |  | 
